Assay results published in PMC5218480 (PLoS ONE, 2017).

System: MV-4-11 cells
Assay: Gene expression microarray analysis (Affymetrix PrimeView) and GSEA
Type: cell-based, human
Set-up: RFU PODN (11730768_x_at) / Fold change /veh PODN (11730768_x_at) / RFU LINC00158 (11744669_a_at) / Fold change /veh LINC00158 (11744669_a_at) / RFU DUSP10 (11751237_a_at) / Fold change /veh DUSP10 (11751237_a_at) / RFU ID3 (11757404_x_at) / Fold change /veh ID3 (11757404_x_at) / RFU PLEKHG5 (11737974_s_at) / Fold change /veh PLEKHG5 (11737974_s_at) / RFU LRRC4B (11730491_at) / Fold change /veh LRRC4B (11730491_at) / RFU GIMAP4 (11747438_a_at) / Fold change /veh GIMAP4 (11747438_a_at) / RFU KRT8 (11758183_x_at) / Fold change /veh KRT8 (11758183_x_at) / RFU CNN1 (11734310_a_at) / Fold change /veh CNN1 (11734310_a_at) / RFU VPS37D (11726825_at) / Fold change /veh VPS37D (11726825_at) / RFU C10orf10 (11716522_x_at) / Fold change /veh C10orf10 (11716522_x_at) / RFU KIR2DL2 /// KIR2DL4 /// KIR2DL5A /// KIR2DL5B /// KIR2DS1 /// KIR2DS2 /// KIR2DS3 /// KIR2DS4 /// KIR3DL3 /// KIR3DL3 /// KIR3DS1 (11738374_at) / Fold change /veh KIR2DL2 /// KIR2DL4 /// KIR2DL5A /// KIR2DL5B /// KIR2DS1 /// KIR2DS2 /// KIR2DS3 /// KIR2DS4 /// KIR3DL3 /// KIR3DL3 /// KIR3DS1 (11738374_at) / RFU C1QL1 (11718748_at) / Fold change /veh C1QL1 (11718748_at) / RFU TMPRSS4 (11747572_a_at) / Fold change /veh TMPRSS4 (11747572_a_at) / RFU HAMP (11756126_x_at) / Fold change /veh HAMP (11756126_x_at) / RFU RNFT2 (11725882_a_at) / Fold change /veh RNFT2 (11725882_a_at) / RFU NR4A2 (11747474_a_at) / Fold change /veh NR4A2 (11747474_a_at) / RFU ABCC12 (11746883_a_at) / Fold change /veh ABCC12 (11746883_a_at) / RFU TMEM136 (11760407_x_at) / Fold change /veh TMEM136 (11760407_x_at) / RFU CLDN22 /// WWC2 (11732394_at) / Fold change /veh CLDN22 /// WWC2 (11732394_at) / RFU HLA-DPB1 (11760878_x_at) / Fold change /veh HLA-DPB1 (11760878_x_at) / RFU SPINT1 (11716480_a_at) / Fold change /veh SPINT1 (11716480_a_at) / RFU GAP43 (11754022_s_at) / Fold change /veh GAP43 (11754022_s_at) / RFU A4GNT (11735810_at) / Fold change /veh A4GNT (11735810_at) / RFU PRB3 (11715151_x_at) / Fold change /veh PRB3 (11715151_x_at) / RFU TUBB4B (11761932_at) / Fold change /veh TUBB4B (11761932_at) / RFU CAPN14 (11732068_a_at) / Fold change /veh CAPN14 (11732068_a_at) / RFU TMCC2 (11721928_a_at) / Fold change /veh TMCC2 (11721928_a_at) / RFU IRGQ (11745062_a_at) / Fold change /veh IRGQ (11745062_a_at) / RFU FAM174B (11720279_a_at) / Fold change /veh FAM174B (11720279_a_at) / RFU TMPRSS4 (11748680_a_at) / Fold change /veh TMPRSS4 (11748680_a_at) / RFU FAM212B (11763350_a_at) / Fold change /veh FAM212B (11763350_a_at) / RFU PLEKHG5 (11743358_a_at) / Fold change /veh PLEKHG5 (11743358_a_at) / RFU ZSCAN30 (11745921_a_at) / Fold change /veh ZSCAN30 (11745921_a_at) / RFU CMKLR1 (11741424_a_at) / Fold change /veh CMKLR1 (11741424_a_at) / RFU LOC101060620 /// MAPK8IP1 (11723275_at) / Fold change /veh LOC101060620 /// MAPK8IP1 (11723275_at) / RFU SPTSSB (11747773_x_at) / Fold change /veh SPTSSB (11747773_x_at) / RFU PRSS12 (11739890_at) / Fold change /veh PRSS12 (11739890_at) / RFU BIN1 (11741810_x_at) / Fold change /veh BIN1 (11741810_x_at) / RFU WNT11 (11732464_a_at) / Fold change /veh WNT11 (11732464_a_at) / RFU C10orf10 (11716521_a_at) / Fold change /veh C10orf10 (11716521_a_at) / RFU C5orf56 (11738089_at) / Fold change /veh C5orf56 (11738089_at) / RFU CYB561 (11721691_x_at) / Fold change /veh CYB561 (11721691_x_at) / RFU ANKRD19P (11752326_a_at) / Fold change /veh ANKRD19P (11752326_a_at) / RFU OR2T12 /// OR2T33 /// OR2T8 (11738714_s_at) / Fold change /veh OR2T12 /// OR2T33 /// OR2T8 (11738714_s_at) / RFU VCAN (11748164_a_at) / Fold change /veh VCAN (11748164_a_at) / RFU JSRP1 (11732532_at) / Fold change /veh JSRP1 (11732532_at) / RFU KRTAP10-11 (11738290_x_at) / Fold change /veh KRTAP10-11 (11738290_x_at) / RFU MYO3A (11730013_a_at) / Fold change /veh MYO3A (11730013_a_at) / RFU EBF3 (11725865_a_at) / Fold change /veh EBF3 (11725865_a_at) / RFU CAMK2N1 (11719241_x_at) / Fold change /veh CAMK2N1 (11719241_x_at) / RFU C5orf56 (11738088_a_at) / Fold change /veh C5orf56 (11738088_a_at) / RFU OLFML3 (11715873_a_at) / Fold change /veh OLFML3 (11715873_a_at) / RFU LOC100653217 /// NTM (11731650_a_at) / Fold change /veh LOC100653217 /// NTM (11731650_a_at) / RFU MAPK11 (11762145_a_at) / Fold change /veh MAPK11 (11762145_a_at) / RFU FIZ1 (11724087_x_at) / Fold change /veh FIZ1 (11724087_x_at) / RFU OASL (11726364_x_at) / Fold change /veh OASL (11726364_x_at) / RFU SOX15 (11748057_x_at) / Fold change /veh SOX15 (11748057_x_at) / RFU CD79A (11719716_a_at) / Fold change /veh CD79A (11719716_a_at) / RFU HIST1H1D (11736915_at) / Fold change /veh HIST1H1D (11736915_at) / RFU CASKIN2 (11723855_a_at) / Fold change /veh CASKIN2 (11723855_a_at) / RFU LOC730098 (11760151_x_at) / Fold change /veh LOC730098 (11760151_x_at) / RFU OR4N2 (11742367_at) / Fold change /veh OR4N2 (11742367_at) / RFU PRRT2 (11749266_a_at) / Fold change /veh PRRT2 (11749266_a_at) / RFU SNX32 (11753110_a_at) / Fold change /veh SNX32 (11753110_a_at) / RFU CDHR5 (11726645_a_at) / Fold change /veh CDHR5 (11726645_a_at) / RFU RCAN1 (11760418_a_at) / Fold change /veh RCAN1 (11760418_a_at) / RFU FAM167A (11723789_a_at) / Fold change /veh FAM167A (11723789_a_at) / RFU FAM26E (11764081_at) / Fold change /veh FAM26E (11764081_at) / RFU ISYNA1 (11749810_s_at) / Fold change /veh ISYNA1 (11749810_s_at) / RFU ACY1 (11761880_at) / Fold change /veh ACY1 (11761880_at) / RFU 11764098_at / Fold change /veh 11764098_at / RFU SAMD14 (11745864_x_at) / Fold change /veh SAMD14 (11745864_x_at) / RFU NPB (11741838_a_at) / Fold change /veh NPB (11741838_a_at) / RFU TMPRSS6 (11731388_a_at) / Fold change /veh TMPRSS6 (11731388_a_at) / RFU KRTAP10-2 (11738614_at) / Fold change /veh KRTAP10-2 (11738614_at) / RFU ARHGAP8 /// PRR5-ARHGAP8 (11727945_x_at) / Fold change /veh ARHGAP8 /// PRR5-ARHGAP8 (11727945_x_at) / RFU KRTAP5-7 /// NADSYN1 (11734609_at) / Fold change /veh KRTAP5-7 /// NADSYN1 (11734609_at) / RFU RASL12 (11751679_a_at) / Fold change /veh RASL12 (11751679_a_at) / RFU CDKN2B (11736163_a_at) / Fold change /veh CDKN2B (11736163_a_at) / RFU PRF1 (11729649_at) / Fold change /veh PRF1 (11729649_at) / RFU, ZNF638 /// ZNF638-IT1 / Fold change vs veh, ZNF638 /// ZNF638-IT1 / RFU, PANK3 / Fold change vs veh, PANK3 / RFU, SH3YL1 / Fold change vs veh, SH3YL1 / RFU, ZEB2 / Fold change vs veh, ZEB2 / RFU, NRIP1 / Fold change vs veh, NRIP1 / RFU, PTTG1IP / Fold change vs veh, PTTG1IP / RFU, CAPN2 / Fold change vs veh, CAPN2 / RFU, MED14 / Fold change vs veh, MED14 / RFU, SNORA58 / Fold change vs veh, SNORA58 / RFU, C1orf63 / Fold change vs veh, C1orf63 / RFU, LRRFIP1 / Fold change vs veh, LRRFIP1 / RFU, NDUFAF7 / Fold change vs veh, NDUFAF7 / RFU, SLC12A2 / Fold change vs veh, SLC12A2 / RFU, IBTK / Fold change vs veh, IBTK / RFU, ESF1 / Fold change vs veh, ESF1 / Fold change vs veh, TMEM50B / RFU, TAOK1 / Fold change vs veh, TAOK1 / RFU, ACBD3 / Fold change vs veh, ACBD3 / RFU, TMA16 / Fold change vs veh, TMA16 / RFU, RWDD3 / Fold change vs veh, RWDD3 / RFU, BCAT1 / Fold change vs veh, BCAT1 / RFU, EDEM3 / Fold change vs veh, EDEM3 / RFU, TMEM33 / Fold change vs veh, TMEM33 / RFU, WDR75 / Fold change vs veh, WDR75 / RFU, AHCTF1 / Fold change vs veh, AHCTF1 / RFU, TFRC / Fold change vs veh, TFRC / RFU, ZDHHC17 / Fold change vs veh, ZDHHC17 / RFU, NOM1 / Fold change vs veh, NOM1 / RFU, ARL8B / Fold change vs veh, ARL8B / RFU, ZBTB11 / Fold change vs veh, ZBTB11 / RFU, TAMM41 / Fold change vs veh, TAMM41 / RFU, KIAA1704 /// LOC100996395 / Fold change vs veh, KIAA1704 /// LOC100996395 / RFU, ING1 / Fold change vs veh, ING1 / RFU, TRMT61B / Fold change vs veh, TRMT61B / RFU, FUBP3 / Fold change vs veh, FUBP3 / RFU, TP53 / Fold change vs veh, TP53 / RFU, TNKS2 / Fold change vs veh, TNKS2 / RFU, ZFP14 / Fold change vs veh, ZFP14 / RFU, ACTR2 / Fold change vs veh, ACTR2 / RFU, PPP3R1 / Fold change vs veh, PPP3R1 / RFU, PIK3R1 / Fold change vs veh, PIK3R1 / RFU, HNRNPA1 / Fold change vs veh, HNRNPA1 / RFU, RNF170 / Fold change vs veh, RNF170 / RFU, ZNF28 / Fold change vs veh, ZNF28 / RFU, RNGTT / Fold change vs veh, RNGTT / RFU, OGT / Fold change vs veh, OGT / RFU, BRD1 / Fold change vs veh, BRD1 / RFU, MARS / Fold change vs veh, MARS / RFU, ZNF655 / Fold change vs veh, ZNF655 / RFU, FAHD1 / Fold change vs veh, FAHD1 / RFU, BDP1 / Fold change vs veh, BDP1 / RFU, LRRCC1 / Fold change vs veh, LRRCC1 / RFU, ARID1A / Fold change vs veh, ARID1A / RFU, ZNF146 / Fold change vs veh, ZNF146 / RFU, ZNF330 / Fold change vs veh, ZNF330 / RFU, GPN3 / Fold change vs veh, GPN3 / RFU, C9orf123 / Fold change vs veh, C9orf123 / RFU, N4BP2L2 / Fold change vs veh, N4BP2L2 / RFU, ARFIP1 / Fold change vs veh, ARFIP1 / RFU, FAM179B / Fold change vs veh, FAM179B / RFU, BCL10 / Fold change vs veh, BCL10 / RFU, UHRF1BP1L / Fold change vs veh, UHRF1BP1L / RFU, BET1 / Fold change vs veh, BET1 / RFU, CNOT2 / Fold change vs veh, CNOT2 / RFU, ZNF268 / Fold change vs veh, ZNF268 / Fold change vs veh, ZNF507 / RFU, DGCR2 / Fold change vs veh, DGCR2 / RFU, WDSUB1 / Fold change vs veh, WDSUB1 / Fold change vs veh, HSP90B1 /// MIR3652 / RFU, ADSS / Fold change vs veh, ADSS / RFU, GK / Fold change vs veh, GK / RFU, ZNF148 / Fold change vs veh, ZNF148 / RFU, TAF9 / Fold change vs veh, TAF9 / RFU, SLC1A5 / Fold change vs veh, SLC1A5 / RFU, SLMO2 / Fold change vs veh, SLMO2 / RFU, ABCC4 / Fold change vs veh, ABCC4 / RFU, LOC101060439 /// RAP1B / Fold change vs veh, LOC101060439 /// RAP1B / RFU, RFX7 / Fold change vs veh, RFX7 / RFU, GTPBP10 / Fold change vs veh, GTPBP10 / RFU, CNEP1R1 / Fold change vs veh, CNEP1R1 / RFU, BIVM-ERCC5 /// ERCC5 / Fold change vs veh, BIVM-ERCC5 /// ERCC5 / RFU, ILF3 / Fold change vs veh, ILF3 / RFU 11762660_at / Fold change /veh 11762660_at / RFU VCAN (11757783_s_at) / Fold change /veh VCAN (11757783_s_at) / RFU DDX43 (11728927_at) / Fold change /veh DDX43 (11728927_at) / RFU KRT8 (11758188_x_at) / Fold change /veh KRT8 (11758188_x_at) / RFU NKD1 (11759106_at) / Fold change /veh NKD1 (11759106_at) / RFU SRD5A1 (11742802_a_at) / Fold change /veh SRD5A1 (11742802_a_at) / RFU TPSAB1 /// TPSB2 (11721975_s_at) / Fold change /veh TPSAB1 /// TPSB2 (11721975_s_at) / RFU GSTM3 (11746129_a_at) / Fold change /veh GSTM3 (11746129_a_at) / RFU IL23R (11737362_x_at) / Fold change /veh IL23R (11737362_x_at) / RFU TMEM51 (11727254_a_at) / Fold change /veh TMEM51 (11727254_a_at) / RFU PIWIL2 (11732686_x_at) / Fold change /veh PIWIL2 (11732686_x_at) / RFU ORM1 (11744905_x_at) / Fold change /veh ORM1 (11744905_x_at) / RFU CCDC152 (11743942_at) / Fold change /veh CCDC152 (11743942_at) / RFU ECM1 (11717891_a_at) / Fold change /veh ECM1 (11717891_a_at) / RFU IL23R (11748794_a_at) / Fold change /veh IL23R (11748794_a_at) / RFU TNFAIP8L3 (11732012_x_at) / Fold change /veh TNFAIP8L3 (11732012_x_at) / RFU MBOAT4 (11741988_at) / Fold change /veh MBOAT4 (11741988_at) / RFU 11764193_at / Fold change /veh 11764193_at / RFU TMEM53 (11763286_at) / Fold change /veh TMEM53 (11763286_at) / RFU MAGEB2 (11727129_at) / Fold change /veh MAGEB2 (11727129_at) / RFU TMEM200A (11744735_a_at) / Fold change /veh TMEM200A (11744735_a_at) / RFU CCDC152 (11751479_a_at) / Fold change /veh CCDC152 (11751479_a_at) / RFU FAM211A (11726209_a_at) / Fold change /veh FAM211A (11726209_a_at) / RFU RGS16 (11746705_a_at) / Fold change /veh RGS16 (11746705_a_at) / RFU VCAN (11755009_s_at) / Fold change /veh VCAN (11755009_s_at) / RFU RHOB (11743442_s_at) / Fold change /veh RHOB (11743442_s_at) / RFU RGS16 (11720943_a_at) / Fold change /veh RGS16 (11720943_a_at) / RFU RGS16 (11720944_at) / Fold change /veh RGS16 (11720944_at) / RFU, VPS4B / Fold change vs veh, VPS4B / RFU, CREB1 / Fold change vs veh, CREB1 / RFU, DNAJC13 / Fold change vs veh, DNAJC13 / RFU, GNAQ / Fold change vs veh, GNAQ / RFU, CDK5R1 / Fold change vs veh, CDK5R1 / RFU, ZRANB3 / Fold change vs veh, ZRANB3 / RFU, CUL4A / Fold change vs veh, CUL4A / RFU, CCNY / Fold change vs veh, CCNY / RFU, UFL1 / Fold change vs veh, UFL1 / RFU, COG3 / Fold change vs veh, COG3 / RFU, DIAPH2 / Fold change vs veh, DIAPH2 / RFU, SKA2 / Fold change vs veh, SKA2 / RFU, AFF3 / Fold change vs veh, AFF3 / RFU, LMF1 / Fold change vs veh, LMF1 / RFU, IPO11 / Fold change vs veh, IPO11 / RFU, DFFB / Fold change vs veh, DFFB / RFU, FOXP1 / Fold change vs veh, FOXP1 / RFU, CARD8 / Fold change vs veh, CARD8 / RFU, STRN3 / Fold change vs veh, STRN3 / RFU, ADK / Fold change vs veh, ADK / RFU, RASSF2 / Fold change vs veh, RASSF2 / RFU, WIPF1 / Fold change vs veh, WIPF1 / RFU, LARP1B / Fold change vs veh, LARP1B / RFU, RASA1 / Fold change vs veh, RASA1 / RFU, RB1 / Fold change vs veh, RB1 / RFU, PPFIA1 / Fold change vs veh, PPFIA1 / RFU, MAT2A / Fold change vs veh, MAT2A / RFU, CCT5 / Fold change vs veh, CCT5 / RFU, WDR92 / Fold change vs veh, WDR92 / RFU, CUX1 / Fold change vs veh, CUX1 / RFU, TTC7A / Fold change vs veh, TTC7A / RFU, TMEM135 / Fold change vs veh, TMEM135 / RFU, DEPTOR / Fold change vs veh, DEPTOR / RFU, CPM / Fold change vs veh, CPM / RFU, DNAJB6 / Fold change vs veh, DNAJB6 / RFU, CACNA2D3 / Fold change vs veh, CACNA2D3 / RFU, DTX4 / Fold change vs veh, DTX4 / RFU, TFCP2 / Fold change vs veh, TFCP2 / RFU, GMCL1 /// GMCL1P1 / Fold change vs veh, GMCL1 /// GMCL1P1 / RFU, AEBP2 / Fold change vs veh, AEBP2 / RFU, SNHG1 /// SNORD22 /// SNORD25 /// SNORD26 /// SNORD27 /// SNORD28 /// SNORD29 /// SNORD31 / Fold change vs veh, SNHG1 /// SNORD22 /// SNORD25 /// SNORD26 /// SNORD27 /// SNORD28 /// SNORD29 /// SNORD31 / Fold change (Aza/veh), C12orf56 (ProbeSet 11735607_a_at) / Fold change (ACY-1035/veh), C12orf56 (ProbeSet 11735607_a_at) / Fold change (Aza/veh), FGFR1OP (ProbeSet 11751329_s_at) / Fold change (ACY-1035/veh), FGFR1OP (ProbeSet 11751329_s_at) / Fold change (Aza/veh), VPS36 (ProbeSet 11739960_a_at) / Fold change (ACY-1035/veh), VPS36 (ProbeSet 11739960_a_at) / RFU SYPL1 (11715823_x_at) / Fold change /veh SYPL1 (11715823_x_at) / RFU IGFBP7 (11715501_s_at) / Fold change /veh IGFBP7 (11715501_s_at) / RFU REEP3 (11722064_at) / Fold change /veh REEP3 (11722064_at) / RFU IGLL1 (11728026_x_at) / Fold change /veh IGLL1 (11728026_x_at): dose or concentration left out as unconfirmed
Settings: MV-4-11 cells, 48 hours

In the case of `Nc1ccc(-c2cccs2)cc1NC(=O)c1ccc2c(c1)cc(C1CC1)n2CCN1CCOCC1` [ACY-1035], the “Fold change /veh TUBB4B (11761932_at)” value is reported as 1.03.
